According to publication PMC3578829, “A Small Molecule (Pluripotin) as a Tool for Studying Cancer Stem Cell Biology: Proof of Concept” (PLoS ONE, 2013):
“And” between values parts separate entries of the source, which are not always exact repeats. Identical values can stand only once.

Columns and labels:
HCT-15 [1] = test: Limiting dilution tumorigenicity, s.c. xenograft without protein support; type: in vivo, NOD.SCID mice; details: HCT-15 treated 5 days with 0.1 µM SC-1
Procedure: (§1) Five day exposures were conducted.
(§2) Six week old female NOD.SCID mice were randomly assigned to each of 20 treatment arms (n = 5/group). Treated and control colon tumor lines were enzymatically harvested and counted prior to dilution in RPMI 1640 (at 10, 100, 1,000, 10,000 cells/inoculum) for subcutaneous injection into the axillary region using a volume of […]. Positive control groups were established such that tumor formation occurred in all mice in approximately one week thus confirming that all tumor lines studied were tumorigenic. Cell inocula for the positive control groups ranged from 1×10^6 to 2.5×10^6. Cell viability of the cell stocks was assessed by trypan blue exclusion prior to dilution for injection and was routinely found to be >95%. Tumor formation was monitored weekly using caliper measurements and the tumor mass was calculated as weight in mg = 1/2×(tumor length)×(tumor width)^2. All experiments were terminated at 120 days or when tumor weight exceeded 2000 mg for any individual mouse. In selected studies, tumor cells were resuspended in Matrigel (50% concentration, BD Biosciences) prior to injection.

KM12 = test: as above; type: in vivo, NOD.SCID mice; details: KM12 treated 5 days with 0.1 µM SC-1
Procedure: as §1, §2

COLO 205 = test: as above; type: in vivo, NOD.SCID mice; set-up: key to Tumorigenicity: Y indicates increased tumor formation or increased time to appearance or both.; Y ^%: Y indicates increased tumor formation when Matrigel was co-injected
Procedure: as §1, §2

HCT-116 [2] = test: as above; type: in vivo, NOD.SCID mice; set-up: key to Tumorigenicity: Y indicates increased tumor formation or increased time to appearance or both.; Y ^%: Y indicates increased tumor formation when Matrigel was co-injected
Procedure: as §1, §2

HT29 = test: as above; type: in vivo, NOD.SCID mice; set-up: key to Tumorigenicity: Y indicates increased tumor formation or increased time to appearance or both.; Y ^%: Y indicates increased tumor formation when Matrigel was co-injected
Procedure: as §1, §2

HCC-2998 = test: as above; type: in vivo, NOD.SCID mice; set-up: key to Tumorigenicity: Y indicates increased tumor formation or increased time to appearance or both.; Y ^%: Y indicates increased tumor formation when Matrigel was co-injected
Procedure: as §1, §2

SW-620 = test: as above; type: in vivo, NOD.SCID mice; set-up: key to Tumorigenicity: Y indicates increased tumor formation or increased time to appearance or both.; Y ^%: Y indicates increased tumor formation when Matrigel was co-injected
Procedure: as §1, §2

HCT-116 [3] = test: Cell cycle analysis; type: cell-based; details: harvested day 5
Procedure: Approximately 5×10^6 cells were washed with PBS, resuspended in 5 ml of 4°C 70% ethyl alcohol (ETOH) and then incubated at 4°C for 30 min. The sample was washed again before the addition of 0.5 ml PBS containing 0.2 mg/ml of RNAse A. The sample was then incubated at 37°C for 15 minutes. Next, 0.5 ml propidium iodide (0.05 mg/ml in PBS) was added and incubated at 4°C in the dark for 15 min. The sample was then analyzed on the FACScan (Becton Dickinson, San Jose, CA) flow cytometer. Modfit software evaluated DNA content with an automatic module to determine the fraction of cells in the cell cycle compartments.

HCT-15 [4] = test: Limiting dilution tumorigenicity with Matrigel co-injection; type: in vivo, NOD.SCID mice; set-up: key to Tumorigenicity: Y indicates increased tumor formation or increased time to appearance or both.; Y ^%: Y indicates increased tumor formation when Matrigel was co-injected
Text: To explore the lack of a tumorigenic effect for SC-1 treated HCT-15 cells, the limiting dilution tumorigenicity assay was repeated with the addition of Matrigel to the injected cells (10, 100, 1000, and 10000 cells per injection). A protein support such as Matrigel may provide anchoring, a substrate for angiogenesis, and growth factors. […] For SC-1 treated cells co-injected with Matrigel, 5 of 5 mice had tumor formation over the 99 day observation period at the 10 cell inoculum (Figure 1).
as §2

colon cell lines = test: NCI Anticancer Screen growth inhibition; type: cell-based; details: 2 day exposure; mean±s.e.m., n = 7 colon cell lines
Text: (n = 6, paired Student’s t test, p = 0.02, Table S1). […] Finally, in a representative SC-1 sensitive tumor line (HCT-116), there was no difference in the distribution of the SC-1 treated cell population across the cell cycle compared to control treated cells (Figure S4).

colon tumor lines = test: Cloning assay, all colon tumor lines; type: cell-based
Procedure: Culture dishes were transferred to a refrigerator (4°C) for 15 min, to room temperature for 10 min, and then to culture incubators. An upper layer of 0.5 ml culture medium was applied on day 0. Cultures were stained with MTT (1 mg/ml) for visualization and imaging at multiple time intervals (day 7 and 14). Cumulative counts of colonies (diameters, >60 µm) and cumulative volumes of CFU (diameters >120 µm) were determined with an Omnicon FAS-II (Bausch & Lomb, Rochester, NY) following calibration with an Omnicon test plate 3 and polystyrene microspheres embedded in soft agar matrix. The evaluable region of each culture dish (35 contiguous fields equivalent to 51% of the cell layer culture volume) was analyzed. Selective scoring of viable cell groups was achieved by adjustment of the instrument detection threshold to exclude images of nonstained cellular material and debris. The data was analyzed with Lotus Symphony software.

Compound: Cc1cc(Nc2ncc3c(n2)N(C)C(=O)N(c2cc(NC(=O)c4cccc(C(F)(F)F)c4)ccc2C)C3)n(C)n1 [SC-1]
- Tumor take rate (HCT-15 [1]; 100 cells inoculated s.c.): 0/5
- Tumor take rate (HCT-15 [1]; 1000 cells inoculated s.c.): 0/5
- Tumor take rate (HCT-15 [1]; 10000 cells inoculated s.c.): 0/5
- Tumor take rate (KM12; 100 cells inoculated s.c.): 0/5
- Tumor take rate (KM12; 1000 cells inoculated s.c.): 0/5
- Tumor take rate (KM12; 10000 cells inoculated s.c.): 1/5
- Tumorigenicity (COLO 205; COLO 205, summary of SC-1 effects): Y
- Tumor take rate (COLO 205; COLO 205 treated 5 days with 0.1 µM SC-1, 100 cells inoculated s.c.): 0/5
- Tumor take rate (COLO 205; COLO 205 treated 5 days with 0.1 µM SC-1, 1000 cells inoculated s.c.): 1/5
- Tumor take rate (COLO 205; COLO 205 treated 5 days with 0.1 µM SC-1, 10000 cells inoculated s.c.): 4 of 5 and 4/5
- Calculated Time to 1000 mg Tumor Volume (COLO 205; COLO 205 treated 5 days with 0.1 µM SC-1, 10,000 cells/inoculum, extrapolated from fitted line): 101 days
- Tumorigenicity (HCT-116 [2]; HCT-116, summary of SC-1 effects): Y
- Tumor take rate (HCT-116 [2]; HCT-116 treated 5 days with 0.1 µM SC-1, 100 cells inoculated s.c.): 0/5
- Tumor take rate (HCT-116 [2]; HCT-116 treated 5 days with 0.1 µM SC-1, 1000 cells inoculated s.c.): 2/5
- Tumor take rate (HCT-116 [2]; HCT-116 treated 5 days with 0.1 µM SC-1, 10000 cells inoculated s.c.): 5/5
- Calculated Time to 1000 mg Tumor Volume (HCT-116 [2]; HCT-116 treated 5 days with 0.1 µM SC-1, 10,000 cells/inoculum, extrapolated from fitted line): 45 days
- Tumorigenicity (HT29; HT29, summary of SC-1 effects): Y
- Tumor take rate (HT29; HT29 treated 5 days with 0.1 µM SC-1, 100 cells inoculated s.c.): 2 of 5 and 2/5
- Tumor take rate (HT29; HT29 treated 5 days with 0.1 µM SC-1, 1000 cells inoculated s.c.): 3/5@
- Tumor take rate (HT29; HT29 treated 5 days with 0.1 µM SC-1, 10000 cells inoculated s.c.): 5/5
- Calculated Time to 1000 mg Tumor Volume (HT29; HT29 treated 5 days with 0.1 µM SC-1, 10,000 cells/inoculum, extrapolated from fitted line): 32 days
- Tumorigenicity (HCC-2998; HCC-2998, summary of SC-1 effects): Y
- Tumor take rate (HCC-2998; HCC-2998 treated 5 days with 0.1 µM SC-1, 100 cells inoculated s.c.): 0/5
- Tumor take rate (HCC-2998; HCC-2998 treated 5 days with 0.1 µM SC-1, 1000 cells inoculated s.c.): 0/5
- Tumor take rate (HCC-2998; HCC-2998 treated 5 days with 0.1 µM SC-1, 10000 cells inoculated s.c.): 2/5
- Calculated Time to 1000 mg Tumor Volume (HCC-2998; HCC-2998 treated 5 days with 0.1 µM SC-1, 10,000 cells/inoculum, extrapolated from fitted line): 139 days
- Tumorigenicity (SW-620; SW-620, summary of SC-1 effects): Y
- Tumor take rate (SW-620; SW-620 treated 5 days with 0.1 µM SC-1, 100 cells inoculated s.c.): 0/5
- Tumor take rate (SW-620; SW-620 treated 5 days with 0.1 µM SC-1, 1000 cells inoculated s.c.): 0/5
- Tumor take rate (SW-620; SW-620 treated 5 days with 0.1 µM SC-1, 10000 cells inoculated s.c.): 2/5
- Calculated Time to 1000 mg Tumor Volume (SW-620; SW-620 treated 5 days with 0.1 µM SC-1, 10,000 cells/inoculum, extrapolated from fitted line): 98 days
- Distribution of cell population across the cell cycle vs control (HCT-116 [3]): no difference
- Tumor formation (HCT-15 [4]; HCT-15, 100, 1000, and 10000 cells per injection with Matrigel): tumors formed in all mice
- Tumorigenicity (HCT-15 [4]; HCT-15, Matrigel co-injected, summary of SC-1 effects): Y ^%
- Tumor formation (take rate) (HCT-15 [4]; HCT-15 SC-1 treated, 10 cell inoculum co-injected with Matrigel, 99 day observation): 5 of 5
- GI50 (colon cell lines): 91 ± 70 nM
- Cloning efficiency, all tumor lines (colon tumor lines; assay conducted using Matrigel instead of soft agar (data not shown)): increased cloning efficiency
- Tumor lines with statistically significant increases in cumulative colony forming unit (CFU) mass (colon tumor lines; soft agar, 0.1 µM SC-1 for five days, vs control treated cells): 5/7
